Data from PubChem BioAssay (NCI).
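Protocol summary: plate cells (96-well), add compound at 5 concentrations, incubate 48 h, interpolate endpoints linearly. TGI: total growth inhibition.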

Tests used:
Assay in all cases: DTP human tumour cell line panel, 48 h
UACC-62 melanoma = test system: UACC-62 melanoma
M14 melanoma = test system: M14 melanoma
NCI-H23 lung = test system: NCI-H23 lung
DU-145 prostate = test system: DU-145 prostate
NCI-H460 lung = test system: NCI-H460 lung
EKVX NSCLC = test system: EKVX NSCLC
NCI-H522 lung = test system: NCI-H522 lung
MDA-N = test system: MDA-N
TK-10 renal = test system: TK-10 renal
CCRF-CEM leukemia = test system: CCRF-CEM leukemia
HOP-92 NSCLC = test system: HOP-92 NSCLC
HL-60(TB) leukemia = test system: HL-60(TB) leukemia
LOX IMVI melanoma = test system: LOX IMVI melanoma
HT29 colon = test system: HT29 colon
OVCAR-5 ovarian = test system: OVCAR-5 ovarian
SR leukemia = test system: SR leukemia
SF-268 CNS = test system: SF-268 CNS
MCF7 breast = test system: MCF7 breast
786-0 renal = test system: 786-0 renal
HOP-62 NSCLC = test system: HOP-62 NSCLC
KM12 colon = test system: KM12 colon
NCI-H226 lung = test system: NCI-H226 lung
RPMI-8226 leukemia = test system: RPMI-8226 leukemia
HCT-116 colon = test system: HCT-116 colon
HCT-15 colon = test system: HCT-15 colon
HS 578T breast = test system: HS 578T breast
OVCAR-3 ovarian = test system: OVCAR-3 ovarian
ACHN renal = test system: ACHN renal
UO-31 renal = test system: UO-31 renal
A498 renal = test system: A498 renal
SK-MEL-2 melanoma = test system: SK-MEL-2 melanoma
A549 NSCLC = test system: A549 NSCLC
MDA-MB-231 breast = test system: MDA-MB-231 breast
HCC-2998 colon = test system: HCC-2998 colon
U251 CNS = test system: U251 CNS
SK-MEL-28 melanoma = test system: SK-MEL-28 melanoma
COLO 205 colon = test system: COLO 205 colon
OVCAR-8 ovarian = test system: OVCAR-8 ovarian
SN12C renal = test system: SN12C renal
NCI/ADR-RES ovarian = test system: NCI/ADR-RES ovarian
T-47D breast = test system: T-47D breast
RXF 393 renal = test system: RXF 393 renal
OVCAR-4 ovarian = test system: OVCAR-4 ovarian
UACC-257 melanoma = test system: UACC-257 melanoma
BT-549 breast = test system: BT-549 breast
CAKI-1 renal = test system: CAKI-1 renal
K-562 leukemia = test system: K-562 leukemia
IGROV1 ovarian = test system: IGROV1 ovarian
SNB-19 CNS = test system: SNB-19 CNS
SF-295 CNS = test system: SF-295 CNS
SK-MEL-5 melanoma = test system: SK-MEL-5 melanoma
MALME-3M melanoma = test system: MALME-3M melanoma
MDA-MB-435 = test system: MDA-MB-435
MOLT-4 leukemia = test system: MOLT-4 leukemia
SF-539 CNS = test system: SF-539 CNS
SK-OV-3 ovarian = test system: SK-OV-3 ovarian
PC-3 prostate = test system: PC-3 prostate
SW-620 colon = test system: SW-620 colon

O=C1C(=C(C(=O)c2ccccc2)C(=O)c2ccccc2)OC(c2ccccc2)=C1C(=O)c1ccccc1
TGI (UACC-62 melanoma): 22.8 µM
TGI (M14 melanoma): 31 µM
TGI (NCI-H23 lung): 25.8 µM
TGI (DU-145 prostate): 48.8 µM
TGI (NCI-H460 lung): 19.2 µM
TGI (EKVX NSCLC): 34.8 µM
TGI (NCI-H522 lung): 19.5 µM
TGI (MDA-N): 77.9 µM
TGI (TK-10 renal): 61.4 µM
TGI (CCRF-CEM leukemia): 10.9 µM
TGI (HOP-92 NSCLC): 31.6 µM
TGI (HL-60(TB) leukemia): 30.8 µM
TGI (LOX IMVI melanoma): 18.5 µM
TGI (HT29 colon): 26.5 µM
TGI (OVCAR-5 ovarian): 50.4 µM
TGI (SR leukemia): 14.2 µM
TGI (SF-268 CNS): 34.8 µM
TGI (MCF7 breast): 29.7 µM
TGI (786-0 renal): 20 µM
TGI (HOP-62 NSCLC): 15.6 µM
TGI (KM12 colon): 42.3 µM
TGI (NCI-H226 lung): 16.4 µM
TGI (RPMI-8226 leukemia): 24.9 µM
TGI (HCT-116 colon): 14.1 µM
TGI (HCT-15 colon): 14.9 µM
TGI (HS 578T breast): 54.3 µM
TGI (OVCAR-3 ovarian): 23 µM
TGI (ACHN renal): 20.1 µM
TGI (UO-31 renal): 26.7 µM
TGI (A498 renal): 44.2 µM
TGI (SK-MEL-2 melanoma): 28.3 µM
TGI (A549 NSCLC): 51.6 µM
TGI (MDA-MB-231 breast): 32.2 µM
TGI (HCC-2998 colon): 27.6 µM
TGI (U251 CNS): > 100 µM
TGI (SK-MEL-28 melanoma): 59 µM
TGI (COLO 205 colon): 25.7 µM
TGI (OVCAR-8 ovarian): 15.7 µM
TGI (SN12C renal): 19.2 µM
TGI (NCI/ADR-RES ovarian): 24.5 µM
TGI (T-47D breast): 53.6 µM
TGI (RXF 393 renal): 8.13 µM
TGI (OVCAR-4 ovarian): 9.2 µM
TGI (UACC-257 melanoma): 55.1 µM
TGI (BT-549 breast): 19.9 µM
TGI (CAKI-1 renal): 11.2 µM
TGI (K-562 leukemia): 95 µM
TGI (IGROV1 ovarian): 8.84 µM
TGI (SNB-19 CNS): > 100 µM
TGI (SF-295 CNS): 32.1 µM
TGI (SK-MEL-5 melanoma): 25 µM
TGI (MALME-3M melanoma): 39.4 µM
TGI (MDA-MB-435): 35.4 µM
TGI (MOLT-4 leukemia): 9.86 µM
TGI (SF-539 CNS): 22.3 µM
TGI (SK-OV-3 ovarian): 34.6 µM
TGI (PC-3 prostate): > 100 µM

CC(C)(C)N(Cc1ccoc1)C(=O)/C=C\S(=O)c1ccccc1 (configuration not stated)
TGI (UACC-62 melanoma): 39.3 µM
TGI (M14 melanoma): 40 µM
TGI (NCI-H23 lung): 32.3 µM
TGI (DU-145 prostate): 25.7 µM
TGI (SW-620 colon): 32 µM
TGI (EKVX NSCLC): 75.5 µM
TGI (NCI-H522 lung): 40.5 µM
TGI (MDA-N): 44.2 µM
TGI (TK-10 renal): > 100 µM
TGI (CCRF-CEM leukemia): > 100 µM
TGI (HOP-92 NSCLC): 34.4 µM
TGI (HL-60(TB) leukemia): 47.5 µM
TGI (LOX IMVI melanoma): 21.8 µM
TGI (HT29 colon): 97.7 µM
TGI (OVCAR-5 ovarian): 59.2 µM
TGI (SR leukemia): 77.8 µM
TGI (SF-268 CNS): > 100 µM
TGI (MCF7 breast): 36.7 µM
TGI (786-0 renal): 67 µM
TGI (HOP-62 NSCLC): 36.6 µM
TGI (KM12 colon): 34.5 µM
TGI (NCI-H226 lung): 48.6 µM
TGI (RPMI-8226 leukemia): 89.6 µM
TGI (HCT-116 colon): 34.1 µM
TGI (HCT-15 colon): 51.4 µM
TGI (HS 578T breast): 68 µM
TGI (OVCAR-3 ovarian): 26.2 µM
TGI (ACHN renal): 86.5 µM
TGI (UO-31 renal): 27.6 µM
TGI (A498 renal): 68.1 µM
TGI (SK-MEL-2 melanoma): 39.6 µM
TGI (A549 NSCLC): > 100 µM
TGI (MDA-MB-231 breast): 42.3 µM
TGI (HCC-2998 colon): 34.3 µM
TGI (U251 CNS): 29.9 µM
TGI (SK-MEL-28 melanoma): 44.4 µM
TGI (COLO 205 colon): 43.9 µM
TGI (OVCAR-8 ovarian): 32.1 µM
TGI (SN12C renal): 58.5 µM
TGI (NCI/ADR-RES ovarian): 56.2 µM
TGI (T-47D breast): 38.2 µM
TGI (OVCAR-4 ovarian): > 100 µM
TGI (UACC-257 melanoma): 46.1 µM
TGI (BT-549 breast): 30.3 µM
TGI (CAKI-1 renal): 27.6 µM
TGI (K-562 leukemia): > 100 µM
TGI (IGROV1 ovarian): 32.9 µM
TGI (SNB-19 CNS): 88.8 µM
TGI (SF-295 CNS): > 100 µM
TGI (SK-MEL-5 melanoma): 27.4 µM
TGI (MDA-MB-435): 20.7 µM
TGI (MOLT-4 leukemia): > 100 µM
TGI (SF-539 CNS): 42.9 µM
TGI (SK-OV-3 ovarian): 77.6 µM
TGI (PC-3 prostate): 27.8 µM
